Earlier results in patent US20070161566A1, “Method of treating multiple sclerosis” (Teva Pharmaceutical Industries, Ltd., priority 2006, published 2007).

Experiments:
MS patients = conditions: 20 mg/day subcutaneous dose
[1] = test system: chronic progressive MS patients; conditions: 15 mg twice per day (30 mg per day); up to 24 months

Q: For “L-glutamic acid polymer with L-alanine, L-lysine, L-tyrosine, acetate (salt) [GA]”, which “total number of enhancing lesions as measured by MRI” value (MS patients) is on record?
A: reduce the total number of enhancing lesions

Q: What about the “arrest or reversal of disease progress vs placebo” value [1] of the same substance?
A: did not produce statistically significant difference
